Experimental data published in patent US7763596B2, “Selective glucocorticoid receptor agonists” (The University of Manchester, priority 2000, dated 2010).
Entries after “also recorded” stand apart in the source; their conditions may differ.

What was measured:
[1] = tested on: tyrosine amino transferase (TAT); assay: Quantitation of endogenous tyrosine amino transferase (TAT) in the HEPG2 liver cell line; format: cell-based, human; settings: HEPG2, 1 μM; p=0.014, two tailed t-test
Text: The HEP G2 cell line (ECACC: 85011430) is derived from human liver epithelial cells from a well differentiated hepatocellular carcinoma. This cell line has functional endogenous GR and is stimulated by GR activation to produce tyrosine amino transferase.
In this method a colourimetric approach is used to quantitate TAT activity. The TAT enzyme catalyses the following reaction: L-tyrosine+2-oxoglutarate⇄4-hydroxyphenylpyruvate (pHPP)+L-glutamate
This reaction also requires pyridoxal phosphate (PLP) as a co-factor.
Strong alkali conditions can then be used to convert pHPP to p-hydroxybenzaldehyde (pHBA) and oxalate. The amount of pHBA can then be assessed by measuring its absorbance at 331 nm (extinction coefficient 19,900 M^−1cm^−1) this figure is then assumed to be directly proportional to TAT activity. HEPG2 cells were cultivated till confluent on a 10 cm plate (˜10^7 cells). These cells were then scraped off and suspended in 500 μl of ice cold 0.14M KCl. The cells were lysed by 3 cycles of 10 second burst sonication at full power (50 W, 20 kHz Sonicator; Jencons, Leighton Buzzard, UK). The cells were kept on ice between each burst. […]
(§1) For each reaction a control reaction was set up without the ketoglutarate. […] The samples were incubated at room temperature for a further 30 mins and then the absorbance of each sample was assessed at 331 nm on a spectrophotometer (Ultrospec III, Pharmacia).

[2] = tested on: zymosan induced neutrophil migration; assay: Air pouch model of inflammation, zymosan induced neutrophil migration; format: in vivo, mice
Experimental: Male outbred Swiss albino mice (18-20 g body weight) were purchased from Bantin and Kingman (T.O. strain; Hull, Humberside) and maintained on a standard chow pellet diet with tap water ad libitum and a 12:00 h light/dark cycle. All animals were housed for 3 days prior to experimentation to allow body weight to reach 20-22 g. On the day of experiment mice ranged from 24-26 g.
Air-pouches were formed on the back of mice by air injection (2.5 ml s.c.) on day 0 and day 3 (Perretti and Flower, 1993).
Zymosan A was allowed to defrost at room temperature for 30 min prior to being added to sterile PBS at a concentration of 2 mg/ml forming a homogenous suspension.
(§2) At time 0, mice received either 0.5 ml of zymosan (1 mg) (group A, B, C) injected locally into the air-pouch. Group D and E were left untreated at this time-point. At 4 h post-zymosan the animals were placed in CO2. Air-pouches were then washed with 2 ml of PBS containing 3 mM EDTA, and livers were recovered and snap frozen for later analysis.
The number of migrated leukocytes (≧90% polymorphonuclear leukocytes, PMN) was determined in the lavage fluid from each air-pouch, by taking an aliquot (100 μl) of the lavage fluid and diluting 1:10 in Turk's solution (0.01% crystal violet in 3% acetic acid). The samples were then vortexed and 10 μl of the stained cell solution were placed in a Neubauer haematocymometer and neutrophils numbers counted using a light microscope (Olympus B061).
Neutrophil numbers were compared between groups using ANOVA plus the Bonferroni test. TAT levels were compared using a t-test.

[3] = tested on: tyrosine amino transferase (TAT); assay: Quantitation of tyrosine amino transferase (TAT) in the livers of air pouch mice; format: in vivo; settings: 3 μg i.p., FIG. 22
Experimental: as §2
Quantitation of Tyrosine Amino Transferase (TAT) Protein in the Livers: In this method a colourimetric approach is used to quantitate TAT activity. The TAT enzyme catalyses the following reaction: L-tyrosine+2-oxoglutarate⇄4-hydroxyphenylpyruvate (pHPP)+L-glutamate
This reaction also requires pyridoxal phosphate (PLP) as a co-factor. Strong alkali conditions can then be used to convert pHPP to p-hydroxybenzaldehyde (pHBA) and oxalate. The amount of pHBA can then be assessed by measuring its absorbance at 331 nm (extinction coefficient 19,900 M^−1cm^−1) this figure is then assumed to be directly proportional to TAT activity. Livers were homogenized and the cells were stored on ice. […]
as §1

Compound: CCCNC(=O)C1(O)C(C)CC2C3CCC4=CC(=O)C=CC4(C)C3(F)C(O)CC21C (stereo not shown) [Compound G]
- TAT activity compared to dexamethasone [1]: significant reduction in TAT activity
- Neutrophils (10^6 per mouse) ([2]; 3 μg i.p. at -1 h, Zymosan 1 mg into air-pouch, 4 h time-point, mean ± S.E. of 8 mice): 6.33 ± 0.79 * 10^6 per mouse
- reduction of neutrophil accumulation ([2]; 3 μg i.p., zymosan air pouch, 4 h): ~30%
- liver TAT level compared with vehicle control groups [3]: does not cause-induction; also recorded: did not reduce the level of TAT
